Data published in PMC3596113 (Clinical cancer research : an official journal of the …, 2012).
Like-named read-outs stand apart in the source and are kept apart here. Marks after values point to notes of the source that are not given here.

Columns and labels:
Chk2 = settings: cited from earlier work
[1] = test system: phosphorylation of histone H2Ax in leukemia blast cells; experiment: H2Ax phosphorylation in marrow blasts; format: in vivo, human
CDK1 = settings: cited from earlier work
[2] = test system: relapsed and refractory acute leukemias
[3] = AML patient 49, dose level 1, Ref
[4] = AML patient 73, dose level 5, Relapse 66 mo
[5] = Total, 24 adults, all dose levels
[6] = dose level 1, 10 mg/m^2 (n = 3) + cytarabine
[7] = dose level 2, 20 mg/m^2 (n = 3) + cytarabine
[8] = dose level 4, 56 mg/m^2 (n = 6) + cytarabine
[9] = dose level 5, 140 mg (n = 6) + cytarabine

SMILES: Cn1cc(-c2cnn3c(N)c(Br)c([C@@H]4CCCNC4)nc23)cn1 [SCH 900776]
- Effect on Chk2 (Chk2): without substantial effect
- Sets of samples with enhanced H2Ax phosphorylation ([1]; patients treated with 40 mg/m^2 SCH 900776 or higher): 3 of 5
- Effect on CDK1 (CDK1): without substantial effect
- Response rate (CR plus CRi) ([2]; 1 CRi of 6 patients at SCH 900776 doses ≤ 20 mg/m^2): 17%
- CR/CRi rate ([2]; 2 of 10 patients with AML with adverse cytogenetics): 20%
- CR/CRi rate ([2]; 2 of 10 patients with a complex karyotype): 20%
- CR/CRi rate ([2]; 3 of 8 with secondary AML): 38%
- CR/CRi rate ([2]; 4/8 with relapsed AML): 50%
- Response rate (CR plus CRi) ([2]; 7 (5 CR, 2 CRi) of 18 patients at dose level 3 (40 mg/m^2) or higher): 39%
- CR/CRi rate in patients with AML ([2]; 8 of 21 patients with AML): 38%
- Overall response rate (CR plus CRi) ([2]; 8 of 24 patients, all dose levels): 33%
- Complete tumor clearance (CTC) by day 14, rate ([2]; 12 of 24 patients, all dose levels): 50%
- DFS (mo) ([2]; AML patient 25, dose level 3, Relapse 7 mo): 25.2+ mo
- DFS (mo) [2, 3]: 2.0 mo
- Response (CR/CRi) [2, 3]: CRi
- DFS (mo) ([2]; AML patient 52, dose level 3, primary Ref): 2.2 mo
- DFS (mo) ([2]; AML patient 55, dose level 3, primary Ref): 11.3 mo
- DFS (mo) ([2]; AML patient 60, dose level 4, Relapse 8 mo): 22.4+ mo
- DFS (mo) ([2]; AML patient 61, dose level 5, Relapse 19 mo): 18.1+ mo
- DFS (mo) ([2]; AML patient 70, dose level 4, primary Ref): 9.7 mo
- DFS (mo) [2, 4]: 0.2 mo
- Response (CR/CRi) [2, 4]: CRi
- Day 14 CTC (patients) [2, 5]: 12
- Response (CR/CRi) (patients) [2, 5]: 8 (5/3): all AML
- Response in pts with prior cytarabine ([2]; Total, 24 adults, high = prior 2 g/m^2/72 h infusion or high-dose cytarabine): 7 (6 high)
- Median duration of response ([2]; all patients with CR/CRi, range 0.2–27+): 10 months
- Responders remaining alive ([2]; as of June 1, 2012, at 19+ to 30.5+ months): 5 of the 8
- Response rate (CR plus CRi) ([2]; at least 2 of 6 in each of dose levels 3 through 5): ≥ 33%
- Complete tumor clearance (CTC) by day 14, rate ([2]; at least 3 of 6 per level beginning at dose level 3 (40 mg/m^2)): ≥ 50%
- Day 14 CTC (patients) [2, 6]: 1
- Response (CR/CRi) (patients) [2, 6]: 1 (0/1): AML
- Response in pts with prior cytarabine ([2]; dose level 1, 10 mg/m^2 (n = 3), high = prior 2 g/m^2/72 h infusion or high-dose cytarabine): 1 (high) ^a
- Response in pts with prior cytarabine ([2]; dose level 2, 20 mg/m^2 (n = 3)): 0
- Day 14 CTC (patients) [2, 7]: 1
- Response (CR/CRi) (patients) [2, 7]: 0 (0/0)
- Day 14 CTC (patients) ([2]; dose level 3, 40 mg/m^2 (n = 6) + cytarabine): 4
- Response in pts with prior cytarabine ([2]; dose level 3, 40 mg/m^2 (n = 6), high = prior 2 g/m^2/72 h infusion or high-dose cytarabine): 2 (both high)
- Day 14 CTC (patients) [2, 8]: 3
- Response (CR/CRi) (patients) [2, 8]: 2 (2/0): both AML
- Response in pts with prior cytarabine ([2]; dose level 4, 56 mg/m^2 (n = 6), high = prior 2 g/m^2/72 h infusion or high-dose cytarabine): 2 (1 high)
- Day 14 CTC (patients) [2, 9]: 3
- Response (CR/CRi) (patients) [2, 9]: 2 (1/1): both AML
- Response in pts with prior cytarabine ([2]; dose level 5, 140 mg (n = 6), high = prior 2 g/m^2/72 h infusion or high-dose cytarabine): 2 (both high)
- CR/CRi in patients who had day 14 CTC ([2]; human, in vivo): 8 of the 12
- CR/CRi in patients who had residual leukemia on day 14 ([2]; human, in vivo): none
- CR/CRi ([2]; patients with FLT3-ITD AML): none

SMILES: Nc1ccn([C@@H]2O[C@H](CO)[C@@H](O)[C@@H]2O)c(=O)n1 [cytarabine, reference compound]
- Samples with increase in H2Ax phosphorylation ([1]; marrow blasts, after 24 hours of continuous cytarabine infusion, before SCH 900776 (day 2)): 2 of 10
